According to US20190298722A1, “USE OF AN INHIBITOR OF THE DE NOVO SYNTHESIS OF PURINES, IN THE TREATMENT OF ADENYLOSUCCINATE LYASE DEFICIENCY” (ASSISTANCE PUBLIQUE-HOPITAUX DE PARIS, priority 2016, published 2019):

How the values were obtained:
Assay type in all cases: in vivo, human
[1] = tested on: patients with ADSL deficiency; experiment: Urinary assay of SAICAr and S-Adenosine by HPLC-MS/MS in patients treated with allopurinol; conditions: for urinary SAICAr: three children, allopurinol 200 mg/d
Experimental: (§1) SAICAr and S-Ado metabolites in urine were assayed using HPLC-DAD and HPLC coupled with tandem mass spectrometry (HPLC-MS/MS) according to the techniques recently described (Ceballos-Picot et al. 2015; Zikanova et al. 2014).
The patients received allopurinol daily by the oral route (200 mg/d).

[2] = tested on: patients with ADSL deficiency; experiment: Vineland scale (adaptive skills) during allopurinol treatment; set-up: Vineland standardized score, Communication / Vineland standardized score, Daily life / Vineland standardized score, Social skills / Vineland standardized score, Motor skills / Vineland standardized score, TOTAL: scale not given here
Experimental: (§2) Clinical characterization of the patients was carried out before starting treatment (T1) in accordance with the ICD 10 classification, using standardized tools: • A semi-structured interview by means of the Autism Diagnostic Interview (ADI-R): this is a semi-structured interview intended to classify symptoms reported by parents in the domain of communication, social interaction, restricted and stereotyped behaviours or sensory issues. Scores are established for the current period and, if necessary, for the period when the difficulties were most serious, between the ages of 4 and 5 years. A score is established for each of the three domains based on responses provided by the parents and the judgement of the interviewer. Scores above the thresholds in the 3 domains support a diagnosis of autism, and in one or two domains support a diagnosis of a pervasive developmental disorder. Scores below the thresholds in the 3 domains make it possible to rule out diagnosis of an autism spectrum disorder if the ADI-R results converge with the clinical assessment of the child. • A semi-structured interview using the Vineland 2 scale: this is a semi-structured interview which makes it possible to assess the adaptive skills of the child in the domains of communication, daily life, social skills and motor skills. From the description of their child's daily living skills, equivalent developmental ages and standardized scores are calculated, making it possible to describe the developmental and adaptive profile of the child. • A developmental assessment using the Psychoeducational Profile (PEP 3): this is a direct assessment of the skills of the child in several domains of their development, particularly suited to children who display a developmental disability. Six domains of development are assessed: verbal and preverbal cognition (VPC), expressive language (EL), receptive language (RL), gross motor skills (GM), fine motor skills (FM) and visual-motor imitation (VMI). The results are expressed in terms of equivalent developmental age and emerging score, when the exercises are partially completed. The number of emerging skills, or the difference between the actual ages and the emerging scores, are evidence of the development potential of the children. • The Conners scale: this is an assessment scale intended to quantify the symptoms of inattentiveness, agitation, impulsiveness, anxiety, somatization, behavioural difficulties and learning difficulties. There are several versions of the questionnaire, one for parents, the other for teachers or professionals. The scoring makes it possible to obtain an overall standardized score, considered to be significant when it is greater than 1.5.
(§3) Clinical re-assessments were carried out 6 months and one year after treatment with allopurinol and compared to the first assessment in the absence of treatment with allopurinol. They comprised: • At 6 months: scoring of the Vineland and Conners scales • At 12 months: scoring of the Vineland and Conners scales and completion of PEP-3.
Clinical progress at 200 mg of allopurinol was measured for each child based on the Conner and Vineland scale scores before treatment (T1), at 6 months (T2) and at 12 months of treatment (T3) with regard to behaviour and function.

[3] = tested on: patients with ADSL deficiency; experiment: Urinary assay of SAICAr and S-Ado by HPLC with UV detection (HPLC-DAD); conditions: 3 patients, after 6 and 12 months of treatment with allopurinol
Experimental: as §1

[4] = tested on: patients with ADSL deficiency; experiment: Psychoeducational Profile (PEP3) developmental assessment during allopurinol treatment
Experimental: as §2, §3
Developmental progress was measured by means of developmental ages on the PEP3 scale before treatment (T1) and after a year of treatment (T3).

[5] = patient P1, T2 (6 months) vs T1
[6] = patient P1, T3 (12 months) vs T1
[7] = patient P2, T2 (6 months) vs T1
[8] = patient P2, T3 (12 months) vs T1
[9] = patient P3, T2 (6 months) vs T1
[10] = patient P3, T3 (12 months) vs T1
[11] = Patient 1, T2 (6 months), T1 69
[12] = Patient 1, T3 (12 months), T1 69
[13] = Patient 1, T3 (12 months), T1 1.7
[14] = Patient 2, T3 (12 months), T1 2.3
[15] = Patient 3, T3 (12 months), T1 1.4

Structure (SMILES): O=c1ncnc2[nH][nH]cc1-2 [allopurinol, 1,2-dihydro-4H-pyrazolo[3,4-d]pyrimidin-4-one]
- SAICAr, urine ([1]; patient P1, 6 months (T2) of allopurinol 200 mg/d oral, T1 37.7): 32.9 μmol/mmol creat
- S-Adenosine, urine ([1]; patient P1, 6 months (T2) of allopurinol 200 mg/d oral, before treatment (T1) 55.4): 51.6 μmol/mmol creat
- SAICAr, urine ([1]; patient P1, 12 months (T3) of allopurinol 200 mg/d oral, T1 37.7): 19.4 μmol/mmol creat
- S-Adenosine, urine ([1]; patient P1, 12 months (T3) of allopurinol 200 mg/d oral, T1 55.4): 36.4 μmol/mmol creat
- % variation S-Adenosine [1, 5]: −6.9%
- % variation SAICAr [1, 5]: −12.7%
- S-Ado/SAICAr ratio, urine ([1]; patient P1, T2 (6 months), T1 1.47): 1.57
- % variation S-Adenosine [1, 6]: −34.3%
- % variation SAICAr [1, 6]: −48.6%
- S-Ado/SAICAr ratio, urine ([1]; patient P1, T3 (12 months), T1 1.47): 1.88
- SAICAr, urine ([1]; patient P2, 6 months (T2) of allopurinol 200 mg/d oral, T1 95.4): 57.9 μmol/mmol creat
- S-Adenosine, urine ([1]; patient P2, 6 months (T2) of allopurinol 200 mg/d oral, T1 116.3): 79.3 μmol/mmol creat
- SAICAr, urine ([1]; patient P2, 12 months (T3) of allopurinol 200 mg/d oral, T1 95.4): 46.8 μmol/mmol creat
- S-Adenosine, urine ([1]; patient P2, 12 months (T3) of allopurinol 200 mg/d oral, T1 116.3): 63.7 μmol/mmol creat
- % variation S-Adenosine [1, 7]: −31.8%
- % variation SAICAr [1, 7]: −39.3%
- S-Ado/SAICAr ratio, urine ([1]; patient P2, T2 (6 months), T1 1.22): 1.37
- % variation S-Adenosine [1, 8]: −45.2%
- % variation SAICAr [1, 8]: −51.0%
- S-Ado/SAICAr ratio, urine ([1]; patient P2, T3 (12 months), T1 1.22): 1.36
- S-Adenosine, urine ([1]; patient P3, 6 months (T2) of allopurinol 200 mg/d oral, T1 148.6): 113.3 μmol/mmol creat
- SAICAr, urine ([1]; patient P3, 6 months (T2) of allopurinol 200 mg/d oral, T1 167.9): 96.3 μmol/mmol creat
- S-Adenosine, urine ([1]; patient P3, 12 months (T3) of allopurinol 200 mg/d oral, T1 148.6): 98.2 μmol/mmol creat
- SAICAr, urine ([1]; patient P3, 12 months (T3) of allopurinol 200 mg/d oral, T1 167.9): 72.9 μmol/mmol creat
- % variation S-Adenosine [1, 9]: −23.8%
- % variation SAICAr [1, 9]: −42.7%
- S-Ado/SAICAr ratio, urine ([1]; patient P3, T2 (6 months), T1 0.89): 1.18
- % variation S-Adenosine [1, 10]: −33.9%
- % variation SAICAr [1, 10]: −56.6%
- S-Ado/SAICAr ratio, urine ([1]; patient P3, T3 (12 months), T1 0.89): 1.35
- urinary SAICAr ([1]; after 6 and 12 months of treatment): significant reduction
- urinary SAICAr ([1]; after 6 months): significant reduction
- standardized scores on the Vineland scale in all domains ([2]; 3 patients, during treatment, more pronounced for communication): improvement
- Vineland standardized score, Communication ([2]; Patient 1, T2 (6 months), T1 67): 65
- Vineland standardized score, Daily life [2, 11]: 71
- Vineland standardized score, TOTAL [2, 11]: 76
- Vineland standardized score, Social skills ([2]; Patient 1, T2 (6 months), T1 73): 66
- Vineland standardized score, Communication ([2]; Patient 1, T3 (12 months), T1 67): 75
- Vineland standardized score, Daily life [2, 12]: 74
- Vineland standardized score, TOTAL [2, 12]: 74
- Vineland standardized score, Social skills ([2]; Patient 1, T3 (12 months), T1 73): 75
- Vineland standardized score, Communication ([2]; Patient 2, T2 (6 months), T1 57): 72
- Vineland standardized score, Motor skills ([2]; Patient 2, T2 (6 months), T1 61): 67
- Vineland standardized score, TOTAL ([2]; Patient 2, T2 (6 months), T1 69): 79
- Vineland standardized score, Social skills ([2]; Patient 2, T2 (6 months), T1 79): 83
- Vineland standardized score, Daily life ([2]; Patient 2, T2 (6 months), T1 81): 87
- Vineland standardized score, Communication ([2]; Patient 2, T3 (12 months), T1 57): 75
- Vineland standardized score, Motor skills ([2]; Patient 2, T3 (12 months), T1 61): 85
- Vineland standardized score, TOTAL ([2]; Patient 2, T3 (12 months), T1 69): 82
- Vineland standardized score, Social skills ([2]; Patient 2, T3 (12 months), T1 79): 83
- Vineland standardized score, Daily life ([2]; Patient 2, T3 (12 months), T1 81): 87
- Vineland standardized score, Communication ([2]; Patient 3, T2 (6 months), T1 65): 69
- Vineland standardized score, Motor skills ([2]; Patient 3, T2 (6 months), T1 67): 70
- Vineland standardized score, TOTAL ([2]; Patient 3, T2 (6 months), T1 71): 77
- Vineland standardized score, Daily life ([2]; Patient 3, T2 (6 months), T1 75): 87
- Vineland standardized score, Social skills ([2]; Patient 3, T2 (6 months), T1 76): 83
- Vineland standardized score, Communication ([2]; Patient 3, T3 (12 months), T1 65): 74
- Vineland standardized score, Motor skills ([2]; Patient 3, T3 (12 months), T1 67): 72
- Vineland standardized score, TOTAL ([2]; Patient 3, T3 (12 months), T1 71): 80
- Vineland standardized score, Daily life ([2]; Patient 3, T3 (12 months), T1 75): 87
- Vineland standardized score, Social skills ([2]; Patient 3, T3 (12 months), T1 76): 88
- SAICAr and S-Ado in urine (HPLC-DAD) [3]: significant reduction
- equivalent developmental ages ([4]; 3 patients, during treatment, rate remains slow with respect to chronological age): progression
- PEP3 developmental age, EL (expressive language) [4, 13]: 1.8
- PEP3 developmental age, RL (receptive language) [4, 13]: 2.3
- PEP3 developmental age, GM ([4]; Patient 1, T3 (12 months), T1 2.2): 2.8
- PEP3 developmental age, FM ([4]; Patient 1, T3 (12 months), T1 2.5): 2.8
- PEP3 developmental age, VPC (verbal and preverbal cognition) ([4]; Patient 1, T3 (12 months), T1 2.6, figures read as years.months per Table 2): 3
- PEP3 developmental age, VMI (visual-motor imitation) ([4]; Patient 1, T3 (12 months), T1 2.8): 3.3
- PEP3 developmental age, EL (expressive language) ([4]; Patient 2, T3 (12 months), T1 1.3): 1.7
- PEP3 developmental age, RL (receptive language) ([4]; Patient 2, T3 (12 months), T1 1.8): 2.7
- PEP3 developmental age, GM ([4]; Patient 2, T3 (12 months), T1 1.9): 3.3
- PEP3 developmental age, FM [4, 14]: 4.0
- PEP3 developmental age, VPC (verbal and preverbal cognition) [4, 14]: 2.3
- PEP3 developmental age, VMI (visual-motor imitation) ([4]; Patient 2, T3 (12 months), T1 6): 6.0
- PEP3 developmental age, EL (expressive language) [4, 15]: 2.3
- PEP3 developmental age, GM [4, 15]: 3.4
- PEP3 developmental age, RL (receptive language) ([4]; Patient 3, T3 (12 months), T1 1.5): 2
- PEP3 developmental age, VPC (verbal and preverbal cognition) ([4]; Patient 3, T3 (12 months), T1 1.6): 2.4
- PEP3 developmental age, FM ([4]; Patient 3, T3 (12 months), T1 2): 3.6
- PEP3 developmental age, VMI (visual-motor imitation) ([4]; Patient 3, T3 (12 months), T1 2.1): 3.3
- PEP3 developmental age, fine motor skills and receptive language ([4]; patient P2, T1 to T3): approximately a year
- PEP3 developmental age, gross motor skills ([4]; patient P2, T1 to T3): improvement of more than a year
- PEP3 developmental level, expressive language and preverbal and verbal cognition ([4]; patient P3, T1 to T3): gain of more than a year
